Experimental data published in EP4745135A1 (Gluetacs Therapeutics (Shanghai) Co., Ltd., priority 2023, dated 2025).

Assays:
[1] = target: T1, human Cereblon WT GST-tagged protein (Homo sapiens, UniProt Q96SW2); test: CRBN-binding affinity, HTRF (CEREBLON BINDING kit); conditions: for inhibition at 0.5 µM: read-out: Inhibition Rate at 0.5 µM (%); for inhibition at 2 µM: read-out: Inhibition Rate at 2 µM (%)
T1 construct: purchased CISBIO 64BDCRBNPEH

[2] = target: T2, CK1α (Homo sapiens, UniProt P48729+Q96SW2); test: Western blot, degradation of substrate protein in hPBMCs; format: cell-based
T2 construct: effects of the compounds of the present disclosure on the expression of target proteins in cells; endogenous in cells; host or cells: human PBMCs (Milecell Biotechnologies)
T2 sequence (P48729 whole entry): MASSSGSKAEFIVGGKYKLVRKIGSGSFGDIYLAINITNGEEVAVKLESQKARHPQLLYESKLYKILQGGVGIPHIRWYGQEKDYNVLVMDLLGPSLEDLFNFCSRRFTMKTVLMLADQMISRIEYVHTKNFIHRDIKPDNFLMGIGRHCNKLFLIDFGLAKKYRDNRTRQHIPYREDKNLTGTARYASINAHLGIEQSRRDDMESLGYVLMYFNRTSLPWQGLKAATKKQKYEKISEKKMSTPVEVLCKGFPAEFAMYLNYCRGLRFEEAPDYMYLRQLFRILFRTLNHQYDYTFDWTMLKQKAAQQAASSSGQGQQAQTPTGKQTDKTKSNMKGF
T2 sequence (Q96SW2 whole entry): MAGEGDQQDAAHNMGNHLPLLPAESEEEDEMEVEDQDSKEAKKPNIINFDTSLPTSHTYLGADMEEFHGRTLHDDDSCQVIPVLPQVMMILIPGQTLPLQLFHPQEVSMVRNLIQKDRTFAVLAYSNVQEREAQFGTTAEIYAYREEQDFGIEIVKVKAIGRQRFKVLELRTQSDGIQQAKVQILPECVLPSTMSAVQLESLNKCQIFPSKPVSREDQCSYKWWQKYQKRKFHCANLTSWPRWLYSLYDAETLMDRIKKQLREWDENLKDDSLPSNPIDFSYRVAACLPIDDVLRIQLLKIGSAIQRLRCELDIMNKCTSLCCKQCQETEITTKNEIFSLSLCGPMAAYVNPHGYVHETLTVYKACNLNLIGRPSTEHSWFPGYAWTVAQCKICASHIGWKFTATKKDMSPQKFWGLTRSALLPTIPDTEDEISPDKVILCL
T2 sequence (Q16531 whole entry partner): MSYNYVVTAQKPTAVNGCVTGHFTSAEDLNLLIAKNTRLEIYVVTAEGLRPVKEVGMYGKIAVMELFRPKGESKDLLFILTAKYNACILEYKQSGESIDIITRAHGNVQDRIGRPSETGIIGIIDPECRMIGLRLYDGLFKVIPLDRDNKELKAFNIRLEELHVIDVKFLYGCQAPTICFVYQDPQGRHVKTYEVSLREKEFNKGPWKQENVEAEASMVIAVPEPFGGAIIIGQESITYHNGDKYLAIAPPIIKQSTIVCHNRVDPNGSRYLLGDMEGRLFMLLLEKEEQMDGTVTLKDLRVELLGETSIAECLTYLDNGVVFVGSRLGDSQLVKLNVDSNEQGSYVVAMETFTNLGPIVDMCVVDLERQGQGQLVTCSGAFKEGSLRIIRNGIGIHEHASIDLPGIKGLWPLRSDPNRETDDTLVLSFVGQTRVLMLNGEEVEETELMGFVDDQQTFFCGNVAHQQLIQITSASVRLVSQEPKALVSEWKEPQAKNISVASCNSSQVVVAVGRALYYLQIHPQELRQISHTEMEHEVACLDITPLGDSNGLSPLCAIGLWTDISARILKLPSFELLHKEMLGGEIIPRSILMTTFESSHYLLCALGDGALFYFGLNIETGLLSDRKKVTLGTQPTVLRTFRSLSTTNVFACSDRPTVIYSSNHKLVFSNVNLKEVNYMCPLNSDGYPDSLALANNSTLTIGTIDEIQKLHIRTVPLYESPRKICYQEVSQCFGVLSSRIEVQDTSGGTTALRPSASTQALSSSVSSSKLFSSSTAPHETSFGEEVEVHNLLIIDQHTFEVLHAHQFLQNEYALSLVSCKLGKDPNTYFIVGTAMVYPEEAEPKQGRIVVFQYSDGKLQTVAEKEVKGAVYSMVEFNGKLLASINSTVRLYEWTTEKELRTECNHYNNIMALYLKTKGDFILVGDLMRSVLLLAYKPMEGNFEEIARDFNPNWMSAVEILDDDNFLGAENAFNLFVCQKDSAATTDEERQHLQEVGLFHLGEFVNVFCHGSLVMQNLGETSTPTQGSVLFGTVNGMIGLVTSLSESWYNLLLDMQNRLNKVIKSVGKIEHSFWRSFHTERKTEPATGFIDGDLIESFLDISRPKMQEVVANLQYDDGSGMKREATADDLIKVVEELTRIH

[3] = target: T3, WEE1 (Homo sapiens, UniProt P30291+Q96SW2); test: as above; format: cell-based
T3 construct: effects of the compounds of the present disclosure on the expression of target proteins in cells; endogenous in cells; host or cells: human PBMCs (Milecell Biotechnologies)
T3 sequence (P30291 whole entry): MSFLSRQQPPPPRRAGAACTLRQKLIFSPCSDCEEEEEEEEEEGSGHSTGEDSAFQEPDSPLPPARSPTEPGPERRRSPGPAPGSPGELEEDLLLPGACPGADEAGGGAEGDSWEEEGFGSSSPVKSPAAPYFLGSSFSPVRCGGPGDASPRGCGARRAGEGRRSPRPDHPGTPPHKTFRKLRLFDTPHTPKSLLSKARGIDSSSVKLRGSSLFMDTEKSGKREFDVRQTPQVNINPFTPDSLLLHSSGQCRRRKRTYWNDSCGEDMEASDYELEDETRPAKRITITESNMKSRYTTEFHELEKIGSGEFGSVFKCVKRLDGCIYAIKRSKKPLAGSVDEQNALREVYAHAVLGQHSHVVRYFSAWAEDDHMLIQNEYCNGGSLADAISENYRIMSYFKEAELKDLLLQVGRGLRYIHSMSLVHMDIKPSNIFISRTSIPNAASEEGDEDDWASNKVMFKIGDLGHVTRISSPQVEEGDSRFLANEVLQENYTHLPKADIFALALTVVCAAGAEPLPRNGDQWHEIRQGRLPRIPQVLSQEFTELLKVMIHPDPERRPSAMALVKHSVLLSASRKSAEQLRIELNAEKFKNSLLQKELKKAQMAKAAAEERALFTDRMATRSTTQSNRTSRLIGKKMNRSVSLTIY
T3 sequence (Q96SW2 whole entry): as the sequence (Q96SW2 whole entry) above
T3 sequence (Q16531 whole entry partner): as the sequence (Q16531 whole entry partner) above

[4] = target: T4, IKZF1 (Homo sapiens, UniProt Q13422+Q96SW2); test: as above; format: cell-based
T4 construct: effects of the compounds of the present disclosure on the expression of target proteins in cells; endogenous in cells; host or cells: human PBMCs (Milecell Biotechnologies)
T4 sequence (Q13422 whole entry): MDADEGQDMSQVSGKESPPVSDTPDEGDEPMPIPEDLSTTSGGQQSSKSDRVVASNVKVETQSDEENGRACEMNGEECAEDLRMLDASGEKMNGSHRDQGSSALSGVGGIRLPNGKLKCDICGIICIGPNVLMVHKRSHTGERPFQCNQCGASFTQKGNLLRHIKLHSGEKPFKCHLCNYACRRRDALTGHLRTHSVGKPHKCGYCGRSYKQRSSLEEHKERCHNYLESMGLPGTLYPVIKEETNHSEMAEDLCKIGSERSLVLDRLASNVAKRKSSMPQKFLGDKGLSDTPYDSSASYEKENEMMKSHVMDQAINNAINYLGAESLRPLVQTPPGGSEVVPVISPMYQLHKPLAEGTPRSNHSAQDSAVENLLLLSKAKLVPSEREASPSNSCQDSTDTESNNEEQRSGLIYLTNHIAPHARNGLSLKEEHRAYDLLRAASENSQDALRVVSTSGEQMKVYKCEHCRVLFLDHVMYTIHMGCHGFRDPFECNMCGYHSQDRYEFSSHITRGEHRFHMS
T4 sequence (Q96SW2 whole entry): as the sequence (Q96SW2 whole entry) above
T4 sequence (Q16531 whole entry partner): as the sequence (Q16531 whole entry partner) above

[5] = target: T5, IKZF3 (Homo sapiens, UniProt Q96SW2+Q9UKT9); test: as above; format: cell-based
T5 construct: effects of the compounds of the present disclosure on the expression of target proteins in cells; endogenous in cells; host or cells: human PBMCs (Milecell Biotechnologies)
T5 sequence (Q9UKT9 whole entry): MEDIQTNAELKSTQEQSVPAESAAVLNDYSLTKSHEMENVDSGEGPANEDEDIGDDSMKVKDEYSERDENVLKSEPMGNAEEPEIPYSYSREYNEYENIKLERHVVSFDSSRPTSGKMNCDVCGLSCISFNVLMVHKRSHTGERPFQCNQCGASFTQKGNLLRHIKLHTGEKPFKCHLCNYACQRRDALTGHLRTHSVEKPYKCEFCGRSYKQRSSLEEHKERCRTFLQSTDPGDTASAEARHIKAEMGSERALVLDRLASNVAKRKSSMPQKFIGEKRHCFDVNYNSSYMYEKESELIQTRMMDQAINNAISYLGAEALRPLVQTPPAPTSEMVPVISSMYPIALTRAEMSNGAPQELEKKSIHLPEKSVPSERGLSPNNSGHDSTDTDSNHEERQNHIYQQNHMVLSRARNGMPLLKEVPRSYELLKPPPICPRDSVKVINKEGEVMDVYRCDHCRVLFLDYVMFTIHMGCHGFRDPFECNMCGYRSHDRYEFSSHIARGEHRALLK
T5 sequence (Q96SW2 whole entry): as the sequence (Q96SW2 whole entry) above
T5 sequence (Q16531 whole entry partner): as the sequence (Q16531 whole entry partner) above

[6] = target: T6, IKZF2 (Homo sapiens, UniProt Q96SW2+Q9UKS7); test: as above; format: cell-based
T6 construct: effects of the compounds of the present disclosure on the expression of target proteins in cells; endogenous in cells; host or cells: human PBMCs (Milecell Biotechnologies)
T6 sequence (Q9UKS7 whole entry): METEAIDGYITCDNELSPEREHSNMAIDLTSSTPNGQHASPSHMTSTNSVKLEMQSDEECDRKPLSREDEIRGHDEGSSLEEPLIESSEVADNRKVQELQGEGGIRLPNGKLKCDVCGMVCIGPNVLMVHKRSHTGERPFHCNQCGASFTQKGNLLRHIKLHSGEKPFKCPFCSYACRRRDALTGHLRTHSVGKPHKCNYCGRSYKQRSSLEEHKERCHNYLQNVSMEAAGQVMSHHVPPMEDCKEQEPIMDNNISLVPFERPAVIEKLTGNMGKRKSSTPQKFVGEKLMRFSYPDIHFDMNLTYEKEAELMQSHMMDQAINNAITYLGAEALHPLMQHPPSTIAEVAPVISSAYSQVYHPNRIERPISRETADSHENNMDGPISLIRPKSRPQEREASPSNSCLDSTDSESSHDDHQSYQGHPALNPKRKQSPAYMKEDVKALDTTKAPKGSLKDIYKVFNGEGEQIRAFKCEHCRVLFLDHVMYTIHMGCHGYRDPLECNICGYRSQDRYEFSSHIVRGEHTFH
T6 sequence (Q96SW2 whole entry): as the sequence (Q96SW2 whole entry) above
T6 sequence (Q16531 whole entry partner): as the sequence (Q16531 whole entry partner) above

[7] = system: GSPT1; test: as above; format: cell-based, Human
[8] = system: Human breast cancer cell (MCF-7); test: Tumor cell proliferation inhibition (CellTiter-Meiluncell luminescent cell viability assay); conditions: MCF7, 96 h; for inhibition at 0.01 µM: read-out: Inhibition Rate at 10 nM (%); for inhibition at 0.5 µM: read-out: Inhibition Rate at 500 nM (%)
[9] = system: Human multiple myeloma cell (MM.1S); test: as above; conditions: for inhibition at 0.01 µM / inhibition at 0.5 µM: Homo sapiens, MM1.S, 96 h; for inhibition at 0.01 µM: read-out: Inhibition Rate at 10 nM (%); for inhibition at 0.5 µM: read-out: Inhibition Rate at 500 nM (%)
[10] = system: Human acute T lymphocytic leukemia cell (Molt4); test: as above; conditions: MOLT-4, 96 h; for inhibition at 0.01 µM: read-out: Inhibition Rate at 10 nM (%); for inhibition at 0.5 µM: read-out: Inhibition Rate at 500 nM (%)
[11] = system: Human myeloid monocytic leukemia cell (MV-4-11); test: as above; conditions: MV4-11, 96 h; for inhibition at 0.01 µM: read-out: Inhibition Rate at 10 nM (%); for inhibition at 0.5 µM: read-out: Inhibition Rate at 500 nM (%)
[12] = Western blot, 24 hours of compound treatment, compounds tested at 50 nM and 500 nM (concentration for the table not stated)
[13] = 24 hours treatment, compounds at 50 nM and 500 nM (concentration behind the class not stated)

T1 sequence (Q96SW2 whole entry): as the sequence (Q96SW2 whole entry) above

Structure (SMILES)	inhibition at 0.5 µM [1]	inhibition at 2 µM [1]	CK1α substrate protein remaining % [2, 12]	Wee1 substrate protein remaining % [3, 12]	IKZF 1 substrate protein remaining % [4, 12]	IKZF3 substrate protein remaining % [5, 12]	IKZF2 substrate protein remaining % [6, 12]	GSPT1 substrate protein remaining % [7, 12]	inhibition at 0.01 µM [9]	inhibition at 0.01 µM [10]	inhibition at 0.5 µM [10]	inhibition at 0.01 µM [11]	inhibition at 0.5 µM [11]	inhibition at 0.5 µM [9]	further results
O=C1CCC(N2Cc3c(CN4CC=C(c5n[nH]c6cc(F)ccc56)CC4)cccc3C2=S)C(=O)N1 (stereo not shown) [GT-08850, 3-(4-((4-(6-fluoro-1H-indazol-3-yl)-3,6-dihydropyridin-1(2H)-yl)methyl)-1-thioxoisoindolin-2-yl)piperidine-2,6-dione]	60 to 80%	80 to 100%	B (80%< substrate protein remaining %≤ 100%)	B (80%< substrate protein remaining %≤ 100%)	B (80%< substrate protein remaining %≤ 100%)	B (80%< substrate protein remaining %≤ 100%)	B (80%< substrate protein remaining %≤ 100%)	A (0% ≤ substrate protein remaining % ≤ 80%)							inhibition at 0.01 µM [8]: 40 to 50%; inhibition at 0.5 µM [8]: 50 to 60%
Cc1nc(C2CCN(Cc3cccc4c3CN(C3CCC(=O)NC3=O)C4=S)CC2)c2c(-c3ccccc3)csc2n1 (stereo not shown) [GT-08931, 3-(4-((4-(2-methyl-5-phenylthieno[2,3-d]pyrimidin-4-yl)piperidin-1-yl)methyl)-1-thioxoisoindolin-2-yl)piperidine-2,6-dione]	40 to 53%	80 to 100%													inhibition at 0.01 µM [8]: 30 to 40%; inhibition at 0.5 µM [8]: 60 to 70%
O=C1CCC(N2Cc3cc(CN4CCC(c5nccc(Cl)c5Cl)CC4)ccc3C2=S)C(=O)N1 (stereo not shown) [GT-08488, 3-(5-((4-(3,4-dichloropyridin-2-yl)piperidin-1-yl)methyl)-1-thioxoisoindolin-2-yl)piperidine-2,6-dione]	60 to 80%	80 to 100%	B (80%< substrate protein remaining %≤ 100%)	B (80%< substrate protein remaining %≤ 100%)	B (80%< substrate protein remaining %≤ 100%)	B (80%< substrate protein remaining %≤ 100%)	B (80%< substrate protein remaining %≤ 100%)	A (0% ≤ substrate protein remaining % ≤ 80%)	10 to 20%	10 to 20%	70 to 80%	18 to 25%	80 to 100%		Inhibition Rate at 500 nM (%) ([9]; MM.1S, 500 nM, 96 hours): la8
O=C1CCC(N2Cc3cc(CN4CCC(c5n[nH]c6cc(F)ccc56)CC4)ccc3C2=S)C(=O)N1 (stereo not shown) [GT-09269, 3-(5-((4-(6-fluoro-1H-indazol-3-yl)piperidin-1-yl)methyl)-1-thioxoisoindolin-2-yl)piperidine-2,6-dione]	80 to 100%	80 to 100%							5 to 10%	30 to 40%	80 to 100%	10 to 18%	80 to 100%	80 to 100%	CK1α substrate protein remaining % [2, 13]: B (80%< substrate protein remaining %≤ 100%); Wee1 substrate protein remaining % [3, 13]: B (80%< substrate protein remaining %≤ 100%); IKZF 1 substrate protein remaining % [4, 13]: B (80%< substrate protein remaining %≤ 100%); IKZF3 substrate protein remaining % [5, 13]: B (80%< substrate protein remaining %≤ 100%); IKZF2 substrate protein remaining % [6, 13]: B (80%< substrate protein remaining %≤ 100%); GSPT1 substrate protein remaining % [7, 13]: A (0% ≤ substrate protein remaining % ≤ 80%)
O=C1CCC(N2Cc3cc(CN4C5CCC4CN(c4cccc(Cl)c4Cl)C5)ccc3C2=S)C(=O)N1 (stereo not shown) [GT-08480, 3-(5-((3-(2,3-dichlorophenyl)-3,8-diazabicyclo[3.2.1]octan-8-yl)methyl)-1-thioxoisoindolin-2-yl)piperidine-2,6-dione]	40 to 53%	80 to 100%	B (80%< substrate protein remaining %≤ 100%)	B (80%< substrate protein remaining %≤ 100%)	B (80%< substrate protein remaining %≤ 100%)	B (80%< substrate protein remaining %≤ 100%)	B (80%< substrate protein remaining %≤ 100%)	A (0% ≤ substrate protein remaining % ≤ 80%)	20 to 30%	0 to 5%	80 to 100%	25 to 30%	80 to 100%	80 to 100%	
O=C1CCC(N2Cc3cc(CN4CCC(c5ccccc5)CC4)ccc3C2=S)C(=O)N1 (stereo not shown) [GT-08616, 3-(5-((4-phenylpiperidin-1-yl)methyl)-1-thioxoisoindolin-2-yl)piperidine-2,6-dione]	53 to 60%	80 to 100%	B (80%< substrate protein remaining %≤ 100%)	B (80%< substrate protein remaining %≤ 100%)	B (80%< substrate protein remaining %≤ 100%)	B (80%< substrate protein remaining %≤ 100%)	B (80%< substrate protein remaining %≤ 100%)	A (0% ≤ substrate protein remaining % ≤ 80%)	20 to 30%	10 to 20%	40 to 50%	-5 to 0%	60 to 80%	50 to 60%	
O=C1CCC(N2Cc3cc(CN4CCN(c5cc(Cl)ccc5Cl)CC4)ccc3C2=S)C(=O)N1 (stereo not shown) [GT-08611, 3-(5-((4-(2,5-dichlorophenyl)piperazin-1-yl)methyl)-1-thioxoisoindolin-2-yl)piperidine-2,6-dione]	30 to 40%	60 to 80%	B (80%< substrate protein remaining %≤ 100%)	B (80%< substrate protein remaining %≤ 100%)	B (80%< substrate protein remaining %≤ 100%)	B (80%< substrate protein remaining %≤ 100%)	B (80%< substrate protein remaining %≤ 100%)	A (0% ≤ substrate protein remaining % ≤ 80%)	20 to 30%	0 to 5%	70 to 80%	18 to 25%	80 to 100%	50 to 60%	
O=C1CCC(N2Cc3cc(CN4CCC(c5ccccc5C(F)(F)F)CC4)ccc3C2=S)C(=O)N1 (stereo not shown) [GT-08622, 3-(1-thioxo-5-((4-(2-(trifluoromethyl)phenyl)piperidin-1-yl)methyl)isoindolin-2-yl)piperidine-2,6-dione]	40 to 53%	80 to 100%	B (80%< substrate protein remaining %≤ 100%)	B (80%< substrate protein remaining %≤ 100%)	B (80%< substrate protein remaining %≤ 100%)	B (80%< substrate protein remaining %≤ 100%)	A (0% ≤ substrate protein remaining % ≤ 80%)	A (0% ≤ substrate protein remaining % ≤ 80%)	10 to 20%	-5 to 0%	80 to 100%	10 to 18%	80 to 100%	70 to 80%	
O=C1CCC(N2Cc3cc(CN4CCN(C(c5ccc(F)cc5)c5ccc(F)cc5)CC4)ccc3C2=S)C(=O)N1 (stereo not shown) [GT-07736, 3-(5-((4-(bis(4-fluorophenyl)methyl)piperazin-1-yl)methyl)-1-thioxoisoindolin-2-yl)piperidine-2,6-dione]	20 to 30%	60 to 80%	B (80%< substrate protein remaining %≤ 100%)	A (0% ≤ substrate protein remaining % ≤ 80%)	A (0% ≤ substrate protein remaining % ≤ 80%)	A (0% ≤ substrate protein remaining % ≤ 80%)	B (80%< substrate protein remaining %≤ 100%)	A (0% ≤ substrate protein remaining % ≤ 80%)	10 to 20%	10 to 20%	40 to 50%	10 to 18%	40 to 60%	80 to 100%	
